Reference: patent US20100284985A1, “Composition” (Danisco A/S, priority 2007, published 2010)

Experiments:
Experiment in all cases: MIC assay, LAE
Format in all cases: cell-based
[1] = test system: Bacillus cereus DCS 500
Experimental: (§1) The Minimal Inhibition Concentration Assay (MIC) is a 96 well liquid based assay developed for a semi-automated assessment system and performed essentially as described in (7). […] From an overnight culture […] of each strain was inoculated in one well corresponding to an approximate inoculation density of 10^3-10^4 cells/well. Media used were CASO, MRS and YM (Appendix 1). Strains were incubated at 20° C., 25° C., 37° C. and under aerobic/anaerobic conditions depending on the preferred conditions for the particular strain (Appendix 1). At time zero, after adding the AM, the optical density (O.D.) of the bacterial culture is measured at 620 nm and then again after 24 hours. […] MIC is defined as the lowest concentration of the AM that will inhibit measurable growth. A bacteriostatic effect is defined as the OD620 at 24 h being less than or equal to 20% of the growth control.

[2] = test system: Bacillus licheniformis (spores) DCS 561sp; details: ppm of the active component
Experimental: as §1

[3] = test system: Bacillus weihenstephanensis DCS 565
Experimental: as §1

[4] = test system: Candida pulcherrima H117; details: ppm of the active component
Experimental: as §1

[5] = test system: Candida tropicalis DCS 604
Experimental: as §1

[6] = test system: Citrobacter freundii DCS 566
Experimental: as §1

[7] = test system: Clostridium algidicarnis DCS 563
Experimental: as §1

[8] = test system: Clostridium sporogenes (spores) DCS 808sp; details: ppm of the active component
Experimental: as §1

[9] = test system: Clostridium sporogenes DCS 541
Experimental: as §1

[10] = test system: Clostridium sporogenes DCS 808
Experimental: as §1

[11] = test system: Debaryomyces hansenii DCS 605
Experimental: as §1

[12] = test system: Hafnia alvei DCS 613
Experimental: as §1

[13] = test system: Klebsiella oxytoca DCS 567
Experimental: as §1

[14] = test system: Lactobacilllus farciminis DCS 611; details: ppm of the active component
Experimental: as §1

[15] = test system: Lactobacillus fermentum DCS 573
Experimental: as §1

[16] = test system: Leuconostoc mesenteroides ss DCS 512
Experimental: as §1

[17] = test system: Listeria innocua DCS 17
Experimental: as §1

[18] = test system: Listeria monocytogenes DCS 490
Experimental: as §1

[19] = test system: Pichia anomala DCS 603
Experimental: as §1

[20] = test system: Rhodotorula mucilaginosa H116; details: ppm of the active component
Experimental: as §1

[21] = test system: Saccharomyces cerevisiae DCS 599
Experimental: as §1

[22] = test system: Salmonella typhimurium DCS 218; details: ppm of the active component
Experimental: as §1

[23] = test system: Salmonella typhimurium DCS 223; details: ppm of the active component
Experimental: as §1

[24] = test system: Staphylococcus aureus DCS 630
Experimental: as §1

[25] = Bacillus cereus, DCS500, ppm of the active component
[26] = Bacillus mycoides, DCS565, ppm of the active component
[27] = Candida tropicalis, DCS604, ppm of the active component
[28] = Citrobacter freundii, DCS566, ppm of the active component
[29] = Clostridium algidicarnis, DCS563, ppm of the active component
[30] = Clostridium sporogenes, DCS541, ppm of the active component
[31] = Clostridium sporogenes, DCS808, ppm of the active component
[32] = Debaryomyces hansenii, DCS605, ppm of the active component
[33] = Hafnia alvei, DCS613, ppm of the active component
[34] = Klebsiella oxytoca, DCS567, ppm of the active component
[35] = Leuconostoc mesenteroides, SSDCS512, ppm of the active component
[36] = Listeria innocua, DCS17, ppm of the active component
[37] = Listeria monocytogenes, DCS490, ppm of the active component
[38] = Hansenula anomala, DCS603, ppm of the active component
[39] = Saccharomyces cerevisiae, DCS599, ppm of the active component
[40] = Salmonella enterica, TYPHIMURIUM
[41] = Staphylococcus aureus, DCS630, ppm of the active component

CCCCCCCCCCCC(=O)N[C@@H](CCCNC(=N)N)C(=O)OCC.Cl [LAE, N^α-Lauroyl-L-arginine ethyl ester monohydrochloride]
MBC [1, 25]: 14.6 µg/mL
MIC [1, 25]: 12.1 µg/mL
increased lag phase ([1]; ppm of the active component): 6.5 ppm
MBC ([2]; Bacillus licheniformis): 61.5 µg/mL
MIC ([2]; Bacillus licheniformis): 6.5 µg/mL
increased lag phase [2]: 6.5 ppm
MBC [3, 26]: 14.6 µg/mL
MIC [3, 26]: 14.6 µg/mL
increased lag phase ([3]; ppm of the active component): 10.5 ppm
MBC ([4]; Metschnikowia pulcherrima): 14.6 µg/mL
MIC ([4]; Metschnikowia pulcherrima): 9.7 µg/mL
increased lag phase [4]: 6.5 ppm
MBC [5, 27]: 4.3 µg/mL
MIC [5, 27]: 4.3 µg/mL
increased lag phase ([5]; ppm of the active component): 4.3 ppm
MBC [6, 28]: 21.9 µg/mL
MIC [6, 28]: 18.2 µg/mL
increased lag phase ([6]; ppm of the active component): 8.1 ppm
MBC [7, 29]: 14.9 µg/mL
MIC [7, 29]: 9.7 µg/mL
increased lag phase ([7]; ppm of the active component): 6.5 ppm
MBC ([8]; Clostridium sporogenes): 18.3 µg/mL
MIC ([8]; Clostridium sporogenes): 8.1 µg/mL
increased lag phase [8]: 8.1 ppm
MBC [9, 30]: 9.7 µg/mL
MIC [9, 30]: 9.7 µg/mL
increased lag phase ([9]; ppm of the active component): 9.7 ppm
MBC [10, 31]: 9.7 µg/mL
MIC [10, 31]: 9.7 µg/mL
increased lag phase ([10]; ppm of the active component): 9.7 ppm
MBC [11, 32]: 4.3 µg/mL
MIC [11, 32]: 4.3 µg/mL
increased lag phase ([11]; ppm of the active component): 4.3 ppm
MBC [12, 33]: 27.4 µg/mL
MIC [12, 33]: 21.9 µg/mL
increased lag phase ([12]; ppm of the active component): 10.5 ppm
MBC [13, 34]: 41 µg/mL
MIC [13, 34]: 32.8 µg/mL
increased lag phase ([13]; ppm of the active component): 18.2 ppm
MBC [14]: > 166 µg/mL
MIC [14]: 49.2 µg/mL
increased lag phase [14]: 49.2 ppm
MBC ([15]; DCS573, ppm of the active component): > 166 µg/mL
MIC ([15]; Limosilactobacillus reuteri, DCS573, ppm of the active component): 73.8 µg/mL
increased lag phase ([15]; ppm of the active component): 73.8 ppm
MBC [16, 35]: > 166 µg/mL
MIC [16, 35]: 41 µg/mL
increased lag phase ([16]; ppm of the active component): 32.8 ppm
MBC [17, 36]: 21.9 µg/mL
MIC [17, 36]: 12.1 µg/mL
increased lag phase ([17]; ppm of the active component): 5.4 ppm
MBC [18, 37]: 12.2 µg/mL
MIC [18, 37]: 12.1 µg/mL
increased lag phase ([18]; ppm of the active component): 8.1 ppm
MBC [19, 38]: 111 µg/mL
MIC [19, 38]: 73.8 µg/mL
increased lag phase ([19]; ppm of the active component): 32.8 ppm
MBC ([20]; Rhodotorula mucilaginosa): 6.5 µg/mL
MIC ([20]; Rhodotorula mucilaginosa): 6.5 µg/mL
increased lag phase [20]: 4.3 ppm
MBC [21, 39]: 14.6 µg/mL
MIC [21, 39]: 14.6 µg/mL
increased lag phase ([21]; ppm of the active component): 14.6 ppm
MBC [22, 40]: 49.2 µg/mL
MIC [22, 40]: 32.8 µg/mL
increased lag phase [22]: 12.1 ppm
MBC [23, 40]: 32.8 µg/mL
MIC [23, 40]: 21.9 µg/mL
increased lag phase [23]: 14.6 ppm
MBC [24, 41]: 18.3 µg/mL
MIC [24, 41]: 14.6 µg/mL
increased lag phase ([24]; ppm of the active component): 14.6 ppm
